pIC50: −log10 of the molar value.
Tests used:
[1] = Stability in diluted blood serum by UV–vis; assay type: in vitro ADME, human; settings: pH 7.40, diluted with HEPES or PBS
Procedure: Measurements with diluted serum show a more elaborate picture. […] The new band cannot be undoubtedly attributed to the liberation of ligand HL^8.
Aqueous stability of 4, 8, and HL^4 was investigated in phosphate-buffered saline (PBS) and 10 mM HEPES buffers and in three-times diluted blood serum (Sigma Aldrich, from human male AB plasma) at pH = 7.40. The concentration of the compounds was between 5 and 10 μM. Blood serum was filtered on a 1.25 μm polyethersulfone membrane syringe filter and diluted with 10 mM HEPES or PBS buffer.

[2] = tested on: HCT-116 colon carcinoma cells; experiment: MTT assay, 96 h; assay type: cell-based, human
Excerpt: The oncosuppressor protein p53 controls the cellular response to DNA strand breaks induced by cytotoxic drugs or by radiation.[58] The p53 protein may enhance cell chemosensitivity by promoting apoptosis via different mechanisms including activation of proapoptotic genes such as bax and repression of antiapoptotic genes such as bcl-2 or in contrast increase chemoresistance by promoting p21-mediated and p21-independent growth arrest and DNA repair and by activation of antiapoptotic genes such as bcl-x. There is strong evidence that the modulation of drug sensitivity by p53 may be both drug- and cell type-specific.[59] […] Accordingly, essential differences in chemosensitivity were observed between cells with wild-type p53 gene and cells with knocked out p53 gene by homologous recombination.[60]
Human colonic adenocarcinoma cell lines Colo 205 doxorubicin-sensitive (ATCC-CCL-222) and Colo 320/MDR-LRP multidrug resistant over-expressing ABCB1 (MDR1)-LRP (ATCC-CCL-220.1) were purchased from LGC Promochem, Teddington, UK. The cells were cultured in an RPMI 1640 medium supplemented with 10% heat-inactivated fetal bovine serum, 2 mM L-glutamine, 1 mM Na-pyruvate, and 10 mM HEPES. The semi-adherent human colon cancer cells were detached with Trypsin-Versene (EDTA) solution for 5 min at 37 °C. An MRC-5 human embryonal lung fibroblast cell line (ATCC CCL-171) was purchased from LGC Promochem, Teddington, UK. The cells were cultured in Eagle’s minimal essential medium (EMEM, containing 4.5 g L^–1 glucose) supplemented with a non-essential amino acid mixture, a selection of vitamins, and 10% heat-inactivated fetal bovine serum. The HCT-116 colon carcinoma cells and isogenic p53-knock-out subline were a gift of Prof. Bert Vogelstein from The Johns Hopkins Oncology Center. Cells were cultured in McCoy’s 5A medium supplemented with 10% heat-inactivated fetal bovine serum and 4 mM L-glutamine. All cell lines were incubated at 37 °C, in a 5% CO2, 95% air atmosphere.
MRC-5 non-cancerous human embryonic lung fibroblast and human colonic adeno-carcinoma cell lines (doxorubicin-sensitive Colo 205 and multidrug resistant Colo 320 colonic adenocarcinoma cells) were used to determine the effect of compounds on cell growth. The effects of increasing concentrations of compounds on cell growth were tested in 96-well flat-bottomed microtiter plates. The compounds were dissolved in DMSO and stock solutions of 10 mM were prepared. These were further diluted in the appropriate cell culture medium by twofold serial dilution starting from 100 or 10 μM for the compounds. The adherent human embryonal lung fibroblast cells were cultured in 96-well flat-bottomed microtiter plates using EMEM supplemented with 10% heat-inactivated fetal bovine serum. The density of the cells was adjusted to 1 × 10^4 cells in 100 μL per well, the cells were seeded for 24 h at 37 °C, 5% CO2, then the medium was removed from the plates containing the cells, and the dilutions of compounds previously made in a separate plate were added to the cells in 200 μL. In the case of the colonic adenocarcinoma cells, the twofold serial dilutions of compounds were prepared in 100 μL of RPMI 1640, horizontally. The semi-adherent colonic adenocarcinoma cells were treated with Trypsin-Versene (EDTA) solution. They were adjusted to a density of 1 × 10^4 cells in 100 μL of RPMI 1640 medium and were added to each well, with the exception of the medium control wells. […]

[3] = target: CaMK-1 (Homo sapiens, UniProt Q14012); experiment: Kinase panel screen and IC50; assay type: biochemical
Excerpt: (§1) Figure 7 (see also Table S4) summarizes the results of this assay as a histogram plotting the percentage of the remaining enzyme activity (x-axis) as a function of added lead compound (HL^8: blue trace, 8: red trace) for each of the 50 enzymes assayed (y-axis). […] Thus, the coordination to copper(II) completely changes the kinase inhibition profile of HL^8.
(§2) Figure 7 Screening of HL^8 and 8 against 50 enzymes: histogram with % remaining activity on the x-axis plotted against the compound identifier (blue trace: HL^8 and red trace: 8) and enzyme identifier on the […]. The screen was carried out at a compound concentration of 10 μM, an enzyme concentration of 50 nM, and an ATP concentration of 100 μM.
(§3) Both compounds were screened against the respective enzymes, and IC50 values were determined.
(§4) All kinase assays were carried out using Multidrop 384’s at room temperature in a total assay volume of 25.5 μL. To plates containing 0.5 μL of HL^8 and 8, DMSO control or acid blank […], 15 μL of an enzyme mix containing enzyme […], and excess peptide/protein substrate in buffer was added. Compounds were pre-incubated in the presence of the enzyme and peptide/protein substrate for 5 min before initiation of the reaction by addition of 10 μL of ATP (final concentration selected for each kinase at 5, 20, or 50 μM). Assays were carried out for 30 min at room temperature before termination by the addition of 5 μL of orthophosphoric acid. The assay plates were then harvested onto P81 Unifilter Plates by a PerkinElmer Harvester and air dried. The dry Unifilter plates were then sealed on the addition of MicroScint O and were counted in PerkinElmer Topcount scintillation counters.
(§5) IC50 values were determined by the International Centre for Kinase Profiling at the University of Dundee according to standard protocols published elsewhere.[109],[110]

[4] = target: MSK1 (Homo sapiens, UniProt O75582); experiment: Kinase panel screen and IC50; assay type: biochemical
Excerpt: as §1, §2, §3, §4, §5

[5] = target: PIM1 (Homo sapiens, UniProt P11309); experiment: Kinase panel screen and IC50; assay type: biochemical
Excerpt: as §1, §2, §3, §4, §5

[6] = target: PKA (Homo sapiens, UniProt P17612); experiment: Kinase panel screen and IC50; assay type: biochemical
Excerpt: as §1, §2, §3, §4, §5

[7] = target: SGK-1 (Homo sapiens, UniProt O00141); experiment: Kinase panel screen and IC50; assay type: biochemical
Excerpt: as §1, §2, §3, §4, §5

PIM1, sequence (P11309 whole entry): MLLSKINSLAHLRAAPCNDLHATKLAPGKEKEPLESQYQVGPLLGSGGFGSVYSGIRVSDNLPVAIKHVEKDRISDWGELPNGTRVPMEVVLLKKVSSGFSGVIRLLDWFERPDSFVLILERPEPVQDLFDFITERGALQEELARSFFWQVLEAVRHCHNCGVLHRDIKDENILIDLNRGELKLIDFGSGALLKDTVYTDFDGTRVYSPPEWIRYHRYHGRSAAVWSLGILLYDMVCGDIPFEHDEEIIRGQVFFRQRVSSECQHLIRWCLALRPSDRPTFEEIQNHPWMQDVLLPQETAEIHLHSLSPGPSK
MSK1, sequence (O75582 whole entry): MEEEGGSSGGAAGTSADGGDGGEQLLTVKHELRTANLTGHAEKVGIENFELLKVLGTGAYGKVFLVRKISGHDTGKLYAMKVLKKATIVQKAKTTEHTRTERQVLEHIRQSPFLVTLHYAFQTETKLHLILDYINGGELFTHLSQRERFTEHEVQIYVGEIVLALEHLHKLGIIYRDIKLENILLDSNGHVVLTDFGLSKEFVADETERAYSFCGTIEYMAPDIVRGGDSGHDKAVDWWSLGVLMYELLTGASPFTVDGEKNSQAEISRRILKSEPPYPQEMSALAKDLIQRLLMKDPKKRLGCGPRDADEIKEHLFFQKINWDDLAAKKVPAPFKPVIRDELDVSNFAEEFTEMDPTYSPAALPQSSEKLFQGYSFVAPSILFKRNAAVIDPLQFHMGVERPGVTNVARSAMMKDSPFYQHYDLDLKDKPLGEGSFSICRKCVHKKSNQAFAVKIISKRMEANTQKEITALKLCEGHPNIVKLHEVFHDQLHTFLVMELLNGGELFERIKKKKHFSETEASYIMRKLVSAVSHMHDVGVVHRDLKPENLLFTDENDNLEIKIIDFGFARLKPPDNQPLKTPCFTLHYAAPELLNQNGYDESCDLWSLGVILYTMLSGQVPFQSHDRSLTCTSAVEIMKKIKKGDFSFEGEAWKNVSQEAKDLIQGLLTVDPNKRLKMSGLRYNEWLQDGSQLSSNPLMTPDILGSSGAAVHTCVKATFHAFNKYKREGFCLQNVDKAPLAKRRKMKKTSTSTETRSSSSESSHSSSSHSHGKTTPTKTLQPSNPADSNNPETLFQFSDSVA
SGK-1, sequence (O00141 whole entry): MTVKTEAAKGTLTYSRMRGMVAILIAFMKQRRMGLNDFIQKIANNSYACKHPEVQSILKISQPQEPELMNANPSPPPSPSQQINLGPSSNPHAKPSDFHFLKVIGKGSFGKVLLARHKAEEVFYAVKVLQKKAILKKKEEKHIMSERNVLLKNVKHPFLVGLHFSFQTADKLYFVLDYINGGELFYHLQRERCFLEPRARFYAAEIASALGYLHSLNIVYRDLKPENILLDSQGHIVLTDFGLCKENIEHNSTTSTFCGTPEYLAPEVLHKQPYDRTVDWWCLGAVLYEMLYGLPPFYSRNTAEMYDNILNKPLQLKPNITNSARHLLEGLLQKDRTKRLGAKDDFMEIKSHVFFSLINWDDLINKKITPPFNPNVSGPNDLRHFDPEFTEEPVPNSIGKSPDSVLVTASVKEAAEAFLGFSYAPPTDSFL

| SMILES | Behaviour in blood serum diluted by factor 3 [1] | pIC50 [2] | % remaining activity ([3]; CaMK-1, 10 µM compound) [%] | pIC50 ([3]; read-out: IC50 against CaMK-1) | % remaining activity ([4]; MSK1, 10 µM compound) [%] | pIC50 ([4]; read-out: IC50 against MSK1) | IC50 against PIM-1 [5] | % remaining activity ([5]; PIM1, 10 µM compound) [%] | % remaining activity ([6]; PKA, 10 µM compound) [%] | pIC50 ([6]; read-out: IC50 against PKA) | % remaining activity ([7]; SGK-1, 10 µM compound) [%] | pIC50 ([7]; read-out: IC50 against SGK-1) |
| --- | --- | --- | --- | --- | --- | --- | --- | --- | --- | --- | --- | --- |
| CC(=NNc1nc2ccccc2c2c1[nH]c1ccc(Br)cc12)c1ccc(CN2CCOCC2)cn1.[Cl][Cu][Cl] [compound 8, CuCl2(HL^8)·H2O] | partial decomposition of the complex | 7.30 | 9 | 6.12 | 17 | 5.53 | did not register binding | 72 | 10 | 5.17 | 5 | 5.07 |
| CC(=NNC1=NCc2ccccc2-c2c1[nH]c1ccc(Br)cc21)c1ccc(CN2CCOCC2)cn1.[Cl][Cu][Cl] [compound 4, CuCl2(HL^4)·0.5H2O] | a similar behavior was observed, even though changes were smaller | 6.89 | – | – | – | – | – | – | – | – | – | – |
